Results on four compounds are retold here after publication PMC7583056, “Synthesis, Characterisation and In Vitro Anticancer Activity of Catalytically Active Indole-Based Half-Sandwich Complexes” (Molecules, 2020).

Broadly, the IC50 is the concentration that inhibits the measured activity by half.

Where two headings read alike, the source gives them in different places.

For one data set, the system named is PNT2 cells. The data set can be described thus: Chemosensitivity assay (MTT) in PNT2 cells. The settings on record: 24 h exposure + 48 h recovery, MTT; mean ± SD. The data set is classed as cell-based. The source says:
(§1) The antiproliferative activity of the ind-py ligand and of complexes 1–4 against ovarian cancer A2780 (cisplatin sensitive) and A2780cisR (cisplatin resistant) cell lines was studied. The IC50 values obtained for all the complexes are shown in Table 2, together with values for cisplatin, which was used as a positive control (untreated cells for 100% viability as negative control). […] One of the major limitations of existing anticancer drugs is their poor selectivity towards cancer cells. Comparing the response of the cancer cell lines to the normal PNT2 cells provides a preliminary indication towards the selectivity of the compounds.
(§2) In vitro chemosensitivity tests were performed against A2780, A2780cisR and PNT2 cells. Cells were routinely maintained as monolayer cultures in RPMI medium supplemented with 10% foetal calf serum, penicillin (100 I.U./mL) and streptomycin (100 μg/mL), sodium pyruvate (1 mM) and L-glutamine (2 mM). For chemosensitivity studies, cells were incubated in 96-well plates at a concentration of 7.5 × 10^3 cells per well and the plates were incubated for 24 h at 37 °C and a 5% CO2 humidified atmosphere prior to drug exposure.
(§3) Complexes were dissolved in DMSO to provide stock solutions, which were further diluted with media to provide a range of final concentrations. Drug-media solutions were added to cells (the final concentration of DMSO was less than 1% (v/v) in all cases) and incubated for 24 h at 37 °C and 5% CO2 humidified atmosphere. The drug-media was removed from the wells and the cells were washed with PBS (100 μL, twice), and 100 μL of complete fresh media were added to each well. The plates were further incubated for 48 h at 37 °C in a 5% CO2 humidified atmosphere to allow for a period of recovery. 3-(4,5-dimethylthiazol-2-yl)-2,5-diphenyltetrazolium bromide (MTT) (20 μL, 2.5 mg/mL) was added to each well and incubated for 2 h at 37 °C and 5% CO2 humidified atmosphere. All solutions were then removed and 100 μL of DMSO was added to each well in order to dissolve the purple formazan crystals. A Thermo Scientific Multiskan EX microplate photometer was used to measure the absorbance in each well at 570 nm. Cell survival was determined as the absorbance of treated cells divided by the absorbance of controls and expressed as a percentage. The IC50 values were determined from plots of % survival against drug concentration. Each experiment was repeated in triplicates of triplicates and a mean value was obtained and stated as IC50 (μM) ± SD. Cisplatin was also used as a positive control.

In data set [1] the test system is A2780 cells. The data set can be described thus: Chemosensitivity assay (MTT) in A2780 cells. Type of data set: cell-based. The note with it: for Selectivity towards cancerous cells (A2780) versus normal cells (PNT2): from IC50 values A2780 vs PNT2.
Source text: as §1, §2, §3

The test system of a further data set is A2780cisR cells. Kind of data set: Chemosensitivity assay (MTT) in A2780cisR cells. The note with it: for IC50: 24 h exposure + 48 h recovery, MTT, mean ± SD. The data set is classed as cell-based.
Source text: as §1, §2, §3

A short description of data set [2]: pKa determination by UV-Vis spectroscopy at increasing pH. Type of data set: physicochemical. The settings on record: 6% acetonitrile/water v/v; for pKa: UV-Vis, aqua adduct, pH 7–12. The procedure: The pKa values for the complexes were measured by dissolving the compounds in 6% acetonitrile/water v/v (aqua adduct formed) and by recording the UV-Vis spectra of the samples at increasing pH (pH 7–12). pKa values of the complexes were calculated using Origin 2018 by plotting the absorbance at the corresponding wavelength against the pH and fitting it to the Boltzmann equation to obtain the inflection point. For complexes 2–4, the pKa values were calculated to be around 10 (Materials and Methods section and Table 1). The pKa of compound 1 could not be calculated, as the absorbance bands for the aqua- and the hydroxo- compounds overlap; however, changes could only be observed at pH values higher than 10. These pKa values are high, although such a decrease in acidity has been previously reported (generally attributed to an increased electron density on the metal centre). As a consequence of such high pKa, only the aqua adduct of the metal complexes is expected to be present at physiological pH (7.4), thus favouring the reaction between the metal complexes with possible ligands such as nucleobases or proteins.
Complexes 1–4 were dissolved in acetonitrile/H2O 6:94 v/v and UV-Vis spectra of the sample were recorded increasing the pH (pH 7–12). pKa vales of the complexes were calculated using Origin 2018 by plotting the absorbance against the pH.

Data set [3] concerns A2780 cells. Kind of data set: Cell viability of A2780 cells, co-incubation with N-acetylcysteine (NAC). Type of data set: cell-based. The settings on record: complex at IC50 concentration, NAC 0, 2, 5 and 10 mM. As to the method:
In order to determine whether ROS formation is a plausible explanation for the activity of these compounds, A2780 cells were treated at IC50 concentrations of 1–4 in combination with increasing concentrations of N-acetylcysteine (NAC; 0, 2, 5 and 10 mM; Figure 4). NAC is a known compound that can act as an ROS scavenger in cells and can be used to counteract the effects of complexes that affect ROS levels. […] However, this effect is not observed with the Os and Ru analogues.
Cells were incubated in 96-well plates at a concentration of 7.5 × 10^3 cells per well and the plates were incubated for 24 h at 37 °C and a 5% CO2 humidified atmosphere prior to drug exposure. Complexes were dissolved in DMSO to provide stock solutions, which were further diluted with media to working concentrations. Solution of N-acetylcysteine (NAC) or sodium formate in media were also prepared. Drug-media solutions and NAC or sodium formate solutions were added to cells (final concentrations as follows: IC50 values for the complex; 0, 2, 5 and 10 mM for NAC; 0, 0.5, 1 and 2 mM for sodium formate; DMSO concentration was less than 1% (v/v) in all cases) and incubated for 24 h at 37 °C in a 5% CO2 humidified atmosphere. After 24 h of incubation, the drug-media was removed from the wells and the cells were washed with PBS (100 μL, twice), and 100 μL of complete fresh media were added to each well. The plates were further incubated for 48 h at 37 °C in a 5% CO2 humidified atmosphere to allow for a period of recovery. 3-(4,5-dimethylthiazol-2-yl)-2,5-diphenyltetrazolium bromide (MTT) (20 μL, 2.5 mg/mL) was added to each well and incubated for 2 h at 37 °C and 5% CO2 humidified atmosphere. All solutions were then removed and 100 μL of DMSO was added to each well in order to dissolve the purple formazan crystals. A Thermo Scientific Multiskan EX microplate photometer was used to measure the absorbance in each well at 570 nm. Cell survival was determined as the absorbance of treated cells divided by the absorbance of controls and expressed as a percentage.

The mark [4] stands for this setting: 24 h exposure + 48 h recovery, MTT, mean ± SD, read-out: IC50 A2780.
Where [5] appears, read: A2780 and A2780cisR, read-out: IC50 values (in the range of).

`Cc1c(C)c(C)[c-](C)c1C.[Cl-].[Ir+3].c1ccc(-c2cc3ccccc3[n-]2)nc1` [complex 2, [Cp*Ir(ind-py)Cl]]: the IC50 in the data set with PNT2 cells is 32.1 ± 3.9 µM; in the data set with A2780 cells [1] (setting [4]), 22 ± 2.5 µM; in the data set on A2780 cells [1] (setting [5]), roughly 20 µM; in the data set on A2780cisR cells, 32.7 ± 1.7 µM. Further, the “IC50 relative to cisplatin (fold higher / less active)” value in the data set on A2780 cells [1] (A2780 and A2780cisR) worked out at 3 ×. In addition, in data set [2], the pKa is given as 9.59 ± 0.09 (λ = 300 nm). For the same compound, the “Effect on cell viability in NAC-supplemented cells” value (shortened to “Effect on cell viability”) in the data set on A2780 cells [3] is reported as “significant decrease of the cell viability”.
As to `Cc1ccc(C(C)C)cc1.[Cl-].[Os+2].c1ccc(-c2cc3ccccc3[n-]2)nc1` [complex 4, [(p-cym)Os(ind-py)Cl]], the IC50 in the data set on PNT2 cells is 34.2 ± 2.2 µM; in the data set on A2780 cells [1] (setting [4]), 18.8 ± 0.3 µM; with A2780 cells [1] (setting [5]) it was roughly 20 µM; in the data set with A2780cisR cells it was 21.5 ± 1.3 µM. Also, the “IC50 relative to cisplatin (fold higher / less active)” value in the data set on A2780 cells [1] (A2780 and A2780cisR) was 3 ×. Moreover, in the data set with A2780 cells [1], the “Selectivity towards cancerous cells (A2780) versus normal cells (PNT2)” value is reported as 2 ×. The “Activity against A2780cisR compared with A2780 (cross-resistance)” value in the data set with A2780cisR cells (comparison of IC50 values) is “no significant difference in activity”. Also, in data set [2], the pKa is listed as 10.15 ± 0.04 (λ = 355 nm). The “Effect on cell viability” value in the data set on A2780 cells [3] is recorded as “not observed”.
As for `Cc1ccc(C(C)C)cc1.[Cl-].[Ru+2].c1ccc(-c2cc3ccccc3[n-]2)nc1` [complex 3, [(p-cym)Ru(ind-py)Cl]], the IC50 in the data set with PNT2 cells amounted to 54.3 ± 5.4 µM; in the data set with A2780 cells [1] (setting [4]), 47.3 ± 4.7 µM; in the data set with A2780cisR cells, 62.8 ± 5.3 µM. In data set [2], the pKa is given as 10.63 ± 0.03 (λ = 255 nm). Also, in the data set with A2780 cells [3], the “Effect on cell viability” value is reported as “not observed”.
Regarding `Cc1c(C)c(C)[c-](C)c1C.[Cl-].[Rh+3].c1ccc(-c2cc3ccccc3[n-]2)nc1` [complex 1, [Cp*Rh(ind-py)Cl]], the IC50 is 34.7 ± 6.1 µM with PNT2 cells, 13 ± 1.7 µM with A2780 cells [1] (setting [4]), roughly 20 µM in the data set with A2780 cells [1] (setting [5]) and 21.5 ± 3.5 µM with A2780cisR cells. The “IC50 relative to cisplatin (fold higher / less active)” value with A2780 cells [1] (A2780 and A2780cisR) is given as 3 ×. Moreover, the “Selectivity towards cancerous cells (A2780) versus normal cells (PNT2)” value in the data set with A2780 cells [1] amounted to 3 ×. In addition, the “pH above which changes in the UV-Vis spectra could be observed” value in data set [2] (pKa itself could not be calculated) was “higher than 10”. The “Effect on cell viability” value with A2780 cells [3] is given as “significant decrease of the cell viability”.
